# Experimental data reported in ChEMBL document CHEMBL4190308, “Drifting of heme-coordinating group in imidazolylmethylxanthones leading to improved selective inhibition of CYP11B1” (Eur J Med Chem, 2017).
# Tests used:
# [1] = target: T1, Cytochrome P450 11B2, mitochondrial (Homo sapiens, UniProt P19099); experiment: Inhibition of human CYP11B2 expressed in hamster V79MZh cells using [1,2-3H]-11-deoxycorticosterone as substrate after 30 mins by HPTLC analysis; type: cell-based
# T1 sequence (P19099 whole entry): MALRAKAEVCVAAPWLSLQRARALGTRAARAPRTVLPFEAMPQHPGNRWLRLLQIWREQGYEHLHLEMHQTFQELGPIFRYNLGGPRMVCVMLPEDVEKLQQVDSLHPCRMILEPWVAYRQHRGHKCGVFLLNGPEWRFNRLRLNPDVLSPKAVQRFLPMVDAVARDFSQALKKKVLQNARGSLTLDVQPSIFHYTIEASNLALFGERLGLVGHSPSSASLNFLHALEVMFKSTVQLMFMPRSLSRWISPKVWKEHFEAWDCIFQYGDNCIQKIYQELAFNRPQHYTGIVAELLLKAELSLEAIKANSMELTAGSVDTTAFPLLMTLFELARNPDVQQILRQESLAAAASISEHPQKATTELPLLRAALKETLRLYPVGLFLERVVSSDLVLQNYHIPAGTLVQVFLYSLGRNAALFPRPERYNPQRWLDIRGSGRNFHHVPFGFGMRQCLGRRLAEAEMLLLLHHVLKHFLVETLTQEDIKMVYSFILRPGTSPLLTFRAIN
# [2] = organism: Homo sapiens; experiment: Selectivity index, ratio of IC50 for human CYP11B2 to IC50 for human CYP11B1
# [3] = target: T2, Cytochrome P450 11B1, mitochondrial (Homo sapiens, UniProt P15538); experiment: Inhibition of human CYP11B1 expressed in hamster V79MZh cells using [1,2-3H]-11-deoxycorticosterone as substrate after 6 hrs by HPTLC analysis; type: cell-based
# T2 sequence (P15538 whole entry): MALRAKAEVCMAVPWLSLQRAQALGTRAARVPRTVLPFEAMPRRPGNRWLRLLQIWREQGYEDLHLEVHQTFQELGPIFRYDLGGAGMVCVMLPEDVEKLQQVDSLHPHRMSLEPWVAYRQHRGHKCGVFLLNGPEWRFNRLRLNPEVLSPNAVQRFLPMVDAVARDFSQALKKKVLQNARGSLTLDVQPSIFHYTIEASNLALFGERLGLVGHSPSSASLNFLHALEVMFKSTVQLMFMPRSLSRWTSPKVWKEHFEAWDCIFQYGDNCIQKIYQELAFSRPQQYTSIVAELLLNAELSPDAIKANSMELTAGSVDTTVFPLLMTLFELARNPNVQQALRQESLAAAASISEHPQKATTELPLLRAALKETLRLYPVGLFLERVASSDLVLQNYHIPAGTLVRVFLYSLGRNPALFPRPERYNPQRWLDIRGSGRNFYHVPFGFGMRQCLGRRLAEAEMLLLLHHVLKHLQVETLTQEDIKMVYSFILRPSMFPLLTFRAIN
SMILES,IC50 [1],Ratio IC50 [2],IC50 [3]
O=c1c2ccc(Br)cc2oc2cc(Cn3ccnc3)ccc12,44.4 nM,3.9,11.4 nM
O=c1c2ccccc2oc2c(Cn3ccnc3)cccc12,43.7 nM,2.9,15.1 nM
O=c1c2ccc(Cn3ccnc3)cc2oc2cc(OC3CCCC3)ccc12,20.3 nM,3.5,5.8 nM
O=c1c2ccc(Cn3ccnc3)cc2oc2cc(OCC3CC3)ccc12,22.3 nM,4.7,4.7 nM
O=c1c2ccc(Cl)cc2oc2cc(Cn3ccnc3)ccc12,95.3 nM,14.4,6.6 nM
O=c1c2ccccc2oc2ccc(Cn3ccnc3)cc12,1140 nM,2.5,463 nM
O=c1c2ccc(Cn3ccnc3)cc2oc2cc([N+](=O)[O-])ccc12,135 nM,7,19.2 nM
O=c1c2ccc(F)cc2oc2cc(Cn3ccnc3)ccc12,82 nM,6.7,12.3 nM
O=c1c2ccccc2oc2cccc(Cn3ccnc3)c12,114 nM,1.2,99.1 nM

# The next lines start with the values.
IC50 [1],Ratio IC50 [2],IC50 [3],SMILES
45.4 nM,2.9,15.4 nM,COc1ccc2c(=O)c3ccc(Cn4ccnc4)cc3oc2c1
344 nM,4.8,70.8 nM,O=c1c2ccccc2oc2cc(Cn3ccnc3)ccc12
26.2 nM,4,6.5 nM,O=c1c2ccc(Cn3ccnc3)cc2oc2cc(Oc3ccccc3)ccc12
16.6 nM,4,4.1 nM,CC(C)Oc1ccc2c(=O)c3ccc(Cn4ccnc4)cc3oc2c1
